{"source": "patent US9255094B2", "about": "“Pyrido[4,3-B]indoles and methods of use” (Medivation Technologies, Inc., priority 2009, dated 2016)", "key": {"[1]": {"target": "T1, rat adrenergic α1A receptor (Rattus norvegicus, UniProt P43140)", "T1 construct": "from tissue; host or cells: Wistar Rat submaxillary glands", "T1 sequence (P43140 1-466)": "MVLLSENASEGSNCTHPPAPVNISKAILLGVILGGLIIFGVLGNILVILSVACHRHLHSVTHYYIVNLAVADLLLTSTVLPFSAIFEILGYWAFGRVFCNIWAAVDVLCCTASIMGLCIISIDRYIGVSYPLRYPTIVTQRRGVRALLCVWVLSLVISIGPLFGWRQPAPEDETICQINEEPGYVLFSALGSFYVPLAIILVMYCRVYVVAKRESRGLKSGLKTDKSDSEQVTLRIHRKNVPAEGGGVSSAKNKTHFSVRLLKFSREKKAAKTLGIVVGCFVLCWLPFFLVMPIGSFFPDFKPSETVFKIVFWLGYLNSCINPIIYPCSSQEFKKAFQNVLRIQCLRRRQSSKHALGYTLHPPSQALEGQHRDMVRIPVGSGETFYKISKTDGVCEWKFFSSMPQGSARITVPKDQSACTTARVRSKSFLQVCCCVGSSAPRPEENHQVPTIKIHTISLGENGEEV", "experiment": "Adrenergic α1A radioligand binding assay ([3H]Prozosin)", "conditions": "compound at 0.1 μM; 0.25 nM [3H]Prozosin; Wistar Rat submaxillary glands; read-out: Percent Inhibition of ligand binding, Adrenergic (0.1 μM) a1A", "protocol": "To evaluate in radioligand binding assays the activity of compounds of the invention, rat adrenergic α1A receptor obtained from Wistar Rat submaxillary glands (Michel, A. D. et al., Br. J. Pharmacol. 98:883, 1989) in a modified Tris-HCl buffer (50 mM Tris-HCl buffer, pH 7.4, 0.5 mM EDTA) is used. Compounds of the invention are incubated with 0.25 nM [^3H]Prozosin for 60 min at 25° C. Non-specific binding is estimated in the presence of 10 μM phentolamine. Receptor proteins are filtered and washed, the filters are then counted to determine [^3H]Prozosin specifically bound. Compounds of the invention are screened at 1 μM or lower, using 1% DMSO as vehicle. Compounds of the invention are tested in this biochemical assay and percent inhibition of specific binding is determined."}, "[2]": {"target": "T2, human recombinant adrenergic α2C receptor (Homo sapiens, UniProt P18825)", "T2 construct": "expressed in transfected cells; host or cells: insect Sf9 cells", "T2 sequence (P18825 1-462)": "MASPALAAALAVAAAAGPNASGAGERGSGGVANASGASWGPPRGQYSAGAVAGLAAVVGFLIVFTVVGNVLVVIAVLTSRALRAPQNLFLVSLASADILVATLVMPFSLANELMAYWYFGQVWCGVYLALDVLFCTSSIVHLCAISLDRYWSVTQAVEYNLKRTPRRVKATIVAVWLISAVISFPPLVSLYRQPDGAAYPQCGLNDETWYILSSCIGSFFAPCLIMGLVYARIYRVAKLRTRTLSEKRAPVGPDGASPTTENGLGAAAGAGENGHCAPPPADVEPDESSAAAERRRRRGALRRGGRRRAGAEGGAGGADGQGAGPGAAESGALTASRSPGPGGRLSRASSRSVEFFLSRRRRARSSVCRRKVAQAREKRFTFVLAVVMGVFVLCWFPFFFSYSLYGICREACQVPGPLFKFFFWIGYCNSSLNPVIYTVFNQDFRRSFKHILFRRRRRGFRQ", "experiment": "Adrenergic α2C radioligand binding assay ([3H]MK-912)", "conditions": "compound at 0.1 μM; 1 nM [3H]MK-912; insect Sf9 cells; read-out: Percent Inhibition of ligand binding, Adrenergic (0.1 μM) a2C", "protocol": "To evaluate in radioligand binding assays the activity of compounds of the invention, human recombinant adrenergic α2C receptor expressed in insect Sf9 cells (Uhlen S et al. J. Pharmacol. Exp. Ther. 271:1558, 1994) in a modified Tris-HCl buffer (50 mM Tris-HCl, pH 7.4, 12.5 mM MgCl2, 2 mM EDTA) is used. Compounds of the invention are incubated with 1 nM [^3H]MK-912 for 60 min at 25° C. Non-specific binding is estimated in the presence of 10 μM WB-4101. Receptor proteins are filtered and washed, the filters are then counted to determine [^3H]MK-912 specifically bound. Compounds are screened at 1 μM or lower, using 1% DMSO as vehicle. Compounds of the invention are tested in this biochemical assay and percent inhibition of specific binding is determined."}, "[3]": {"target": "T3, human recombinant serotonin (5-Hydroxytryptamine) 5-HT2A receptor (Homo sapiens, UniProt P28223)", "T3 construct": "expressed in transfected cells; host or cells: Chinese hamster ovary (CHO-K1) cells", "T3 sequence (P28223 whole entry)": "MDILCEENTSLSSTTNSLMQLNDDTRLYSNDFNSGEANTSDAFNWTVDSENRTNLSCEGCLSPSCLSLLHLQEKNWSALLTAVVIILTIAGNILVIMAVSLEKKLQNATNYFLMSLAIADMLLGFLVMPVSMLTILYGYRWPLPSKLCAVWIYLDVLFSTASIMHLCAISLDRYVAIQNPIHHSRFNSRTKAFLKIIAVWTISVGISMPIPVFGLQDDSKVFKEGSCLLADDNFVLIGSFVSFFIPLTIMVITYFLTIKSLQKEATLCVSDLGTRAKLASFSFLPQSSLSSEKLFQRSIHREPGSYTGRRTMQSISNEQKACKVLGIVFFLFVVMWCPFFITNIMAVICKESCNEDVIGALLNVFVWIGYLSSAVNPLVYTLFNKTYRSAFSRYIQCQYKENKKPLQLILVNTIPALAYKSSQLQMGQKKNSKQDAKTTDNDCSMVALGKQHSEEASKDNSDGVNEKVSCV", "experiment": "Serotonin 5-HT2A radioligand binding assay ([3H]Ketanserin)", "conditions": "0.5 nM [3H]Ketanserin, CHO-K1 cells; for inhibition at 1 µM: compound at 1 μM, read-out: Percent Inhibition of ligand binding, Serotonin (1 μM) 5-HT2A", "protocol": "(§1) Compounds of the invention were incubated with 0.5 nM [^3H]Ketanserin for 60 min at 25° C. Non-specific binding was estimated in the presence of 1 μM Mianserin. Receptor proteins were filtered and washed, the filters were then counted to determine [^3H]Ketanserin specifically bound. Compounds were screened at 1 μM or lower, using 1% DMSO as vehicle. Biochemical assay results are presented as the percent inhibition of specific binding in Table 4."}, "[4]": {"target": "human recombinant histamine H1 receptor (Homo sapiens, UniProt P35367)", "sequence (P35367 whole entry)": "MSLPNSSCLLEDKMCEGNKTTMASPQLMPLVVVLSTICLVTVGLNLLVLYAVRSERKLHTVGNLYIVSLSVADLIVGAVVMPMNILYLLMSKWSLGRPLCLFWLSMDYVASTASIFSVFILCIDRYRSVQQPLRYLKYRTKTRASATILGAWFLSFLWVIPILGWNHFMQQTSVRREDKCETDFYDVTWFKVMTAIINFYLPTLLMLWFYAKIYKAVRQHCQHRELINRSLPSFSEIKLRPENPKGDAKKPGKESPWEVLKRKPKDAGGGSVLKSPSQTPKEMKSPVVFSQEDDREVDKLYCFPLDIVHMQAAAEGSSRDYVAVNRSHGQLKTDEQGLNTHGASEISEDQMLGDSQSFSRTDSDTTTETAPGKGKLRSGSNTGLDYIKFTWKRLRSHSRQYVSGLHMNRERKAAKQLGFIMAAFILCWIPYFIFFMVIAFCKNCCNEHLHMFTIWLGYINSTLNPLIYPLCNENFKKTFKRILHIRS", "experiment": "Histamine H1 radioligand binding assay ([3H]Pyrilamine)", "conditions": "compound at 1 μM, receptor expressed in CHO cells", "protocol": "To evaluate in radioligand binding assays the activity of compounds of the invention, human recombinant histamine H1 receptor expressed in Chinese hamster ovary (CHO) cells (De Backer, M. D. et al., Biochem. Biophys. Res. Comm. 197(3):1601, 1993) in a modified Tris-HCl buffer (50 mM Tris-HCl, pH 7.4, 2 mM MgCl2, 100 mM NaCl, 250 mM Sucrose) was used. Compounds of the invention were incubated with 1.2 nM [^3H]Pyrilamine for 180 min at 25° C. Non-specific binding was estimated in the presence of 1 μM pyrilamine Receptor proteins were filtered and washed, the filters were then counted to determine [^3H]Pyrilamine specifically bound. Compounds were screened at 1 μM or lower, using 1% DMSO as vehicle. Biochemical assay results are presented as the percent inhibition of specific binding in Table 2."}, "[5]": {"target": "T4, human recombinant histamine H2 receptor (Homo sapiens, UniProt P25021)", "T4 construct": "expressed in transfected cells; host or cells: Chinese hamster ovary (CHO) K1 cells", "T4 sequence (P25021 whole entry)": "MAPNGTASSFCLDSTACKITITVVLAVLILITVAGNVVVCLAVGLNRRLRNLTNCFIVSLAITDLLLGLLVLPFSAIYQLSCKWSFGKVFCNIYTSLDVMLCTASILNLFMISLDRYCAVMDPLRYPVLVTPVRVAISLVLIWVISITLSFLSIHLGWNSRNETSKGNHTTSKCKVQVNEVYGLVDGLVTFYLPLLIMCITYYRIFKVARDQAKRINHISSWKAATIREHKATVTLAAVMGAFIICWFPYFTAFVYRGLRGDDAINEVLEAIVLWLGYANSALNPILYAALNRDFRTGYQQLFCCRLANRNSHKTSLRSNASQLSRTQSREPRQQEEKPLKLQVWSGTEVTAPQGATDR", "experiment": "Histamine H2 radioligand binding assay ([125I]Aminopotentidine)", "conditions": "compound at 1 μM; 0.1 nM [125I]Aminopotentidine; receptor expressed in CHO-K1 cells", "protocol": "To evaluate in radioligand binding assays the activity of compounds of the invention, human recombinant histamine H2 receptor expressed in Chinese hamster ovary (CHO) K1 cells (Ruat, M., Proc. Natl. Acad. Sci. USA. 87(5):1658, 1990) in a 50 mM Phosphate buffer, pH 7.4 was used. Compounds of the invention were incubated with 0.1 nM [^125I]Aminopotentidine for 120 min at 25° C. Non-specific binding was estimated in the presence of 3 μM Tiotidine. Receptor proteins were filtered and washed, the filters were then counted to determine [^125I]Aminopotentidine specifically bound. Compounds were screened at 1 μM or lower, using 1% DMSO as vehicle. Biochemical assay results are presented as the percent inhibition of specific binding in Table 2."}, "[6]": {"target": "human recombinant dopamine D2L receptor (Homo sapiens, UniProt P14416)", "sequence (P14416 whole entry)": "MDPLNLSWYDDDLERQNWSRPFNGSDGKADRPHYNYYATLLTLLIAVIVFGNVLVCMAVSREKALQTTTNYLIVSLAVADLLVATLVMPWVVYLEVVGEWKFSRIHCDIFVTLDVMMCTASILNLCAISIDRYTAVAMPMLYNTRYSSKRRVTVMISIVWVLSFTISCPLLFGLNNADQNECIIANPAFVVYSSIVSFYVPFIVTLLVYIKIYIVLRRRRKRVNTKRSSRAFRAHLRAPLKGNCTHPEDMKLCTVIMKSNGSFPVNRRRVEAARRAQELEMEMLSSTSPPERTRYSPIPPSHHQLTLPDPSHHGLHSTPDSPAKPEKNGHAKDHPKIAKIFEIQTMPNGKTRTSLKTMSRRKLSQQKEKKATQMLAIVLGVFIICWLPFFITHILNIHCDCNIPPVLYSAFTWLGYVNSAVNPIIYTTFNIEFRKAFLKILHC", "experiment": "Dopamine D2L radioligand binding assay ([3H]Spiperone)", "conditions": "compound at 1 μM, 0.16 nM [3H]Spiperone, CHO cells, read-out: Percent Inhibition of ligand binding, Dopamine (1μM)", "protocol": "Compounds of the invention were incubated with 0.16 nM [^3H]Spiperone for 120 min at 25° C. Non-specific binding was estimated in the presence of 10 μM Haloperidol. Receptor proteins were filtered and washed, the filters were then counted to determine [^3H]Spiperone specifically bound. Compounds were screened at 1 μM or lower, using 1% DMSO as vehicle. Biochemical assay results are presented as the percent inhibition of specific binding in Table 3."}, "[7]": {"target": "T5, human recombinant serotonin (5-Hydroxytryptamine) 5-HT2C receptor (Homo sapiens, UniProt P28335)", "T5 construct": "expressed in transfected cells; host or cells: Chinese hamster ovary (CHO-K1) cells", "T5 sequence (P28335 33-458)": "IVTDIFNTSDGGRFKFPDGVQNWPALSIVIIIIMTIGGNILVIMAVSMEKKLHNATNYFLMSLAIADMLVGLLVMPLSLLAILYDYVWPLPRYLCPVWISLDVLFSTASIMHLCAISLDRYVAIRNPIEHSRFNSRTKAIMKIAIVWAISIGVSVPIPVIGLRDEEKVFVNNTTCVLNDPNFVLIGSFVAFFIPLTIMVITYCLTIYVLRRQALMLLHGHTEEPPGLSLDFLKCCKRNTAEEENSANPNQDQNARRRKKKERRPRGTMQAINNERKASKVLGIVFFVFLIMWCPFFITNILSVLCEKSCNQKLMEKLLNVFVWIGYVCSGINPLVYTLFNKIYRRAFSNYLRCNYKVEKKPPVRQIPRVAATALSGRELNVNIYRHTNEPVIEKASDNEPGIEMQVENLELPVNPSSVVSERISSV", "experiment": "Serotonin 5-HT2C radioligand binding assay ([3H]Mesulergine)", "conditions": "compound at 1 μM; 1 nM [3H]Mesulergine; CHO-K1 cells; read-out: Percent Inhibition of ligand binding, Serotonin (1 μM) 5-HT2C", "protocol": "as §1, with “1” for “0.5”, “[^3H]Mesulergine” for “[^3H]Ketanserin”"}, "[8]": {"target": "T6, human recombinant serotonin (5-Hydroxytryptamine) 5-HT6 receptor (Homo sapiens, UniProt P50406)", "T6 construct": "expressed in transfected cells; host or cells: human HeLa cells", "T6 sequence (P50406 whole entry)": "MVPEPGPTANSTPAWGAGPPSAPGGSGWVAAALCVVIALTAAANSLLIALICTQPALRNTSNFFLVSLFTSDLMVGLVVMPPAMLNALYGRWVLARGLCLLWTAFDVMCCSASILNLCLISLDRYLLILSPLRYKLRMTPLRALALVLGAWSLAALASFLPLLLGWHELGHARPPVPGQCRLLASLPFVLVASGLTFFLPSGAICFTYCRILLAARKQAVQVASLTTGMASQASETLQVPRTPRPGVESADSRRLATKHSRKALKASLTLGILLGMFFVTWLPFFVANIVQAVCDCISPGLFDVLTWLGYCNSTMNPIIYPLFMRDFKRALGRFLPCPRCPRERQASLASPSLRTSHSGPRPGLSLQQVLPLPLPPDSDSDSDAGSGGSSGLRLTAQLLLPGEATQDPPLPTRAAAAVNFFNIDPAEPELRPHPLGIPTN", "experiment": "Serotonin 5-HT6 radioligand binding assay ([3H]LSD)", "conditions": "compound at 1 μM, HeLa cells, read-out: Percent Inhibition of ligand binding, Serotonin (1 μM) 5-HT6", "protocol": "(§2) Compounds of the invention were incubated with 1.5 nM [3H]Lysergic acid diethylamide (LSD) for 120 min at 37° C. […] Receptor proteins were filtered and washed, the filters were then counted to determine [3H]LSD specifically bound. Compounds were screened at 1 μM or lower, using 1% DMSO as vehicle. Biochemical assay results are presented as the percent inhibition of specific binding in Table 4."}, "[9]": {"target": "human recombinant serotonin (5-Hydroxytryptamine) 5-HT7 receptor (Homo sapiens, UniProt P34969)", "sequence (P34969 whole entry)": "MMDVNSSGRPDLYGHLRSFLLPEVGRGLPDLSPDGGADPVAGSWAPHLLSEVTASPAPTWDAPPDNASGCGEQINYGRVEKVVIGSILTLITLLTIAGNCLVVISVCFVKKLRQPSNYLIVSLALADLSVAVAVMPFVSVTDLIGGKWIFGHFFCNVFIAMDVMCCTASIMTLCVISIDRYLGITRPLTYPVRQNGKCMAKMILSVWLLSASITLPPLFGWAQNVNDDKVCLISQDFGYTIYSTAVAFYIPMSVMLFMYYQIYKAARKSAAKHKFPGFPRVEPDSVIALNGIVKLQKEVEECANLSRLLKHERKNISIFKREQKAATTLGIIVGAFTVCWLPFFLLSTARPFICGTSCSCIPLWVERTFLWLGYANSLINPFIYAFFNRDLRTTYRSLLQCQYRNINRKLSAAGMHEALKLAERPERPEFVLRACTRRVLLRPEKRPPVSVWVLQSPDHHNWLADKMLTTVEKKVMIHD", "experiment": "Serotonin 5-HT7 radioligand binding assay ([3H]LSD)", "conditions": "compound at 1 μM; 5.5 nM [3H]LSD; CHO cells; read-out: Percent Inhibition of ligand binding, Serotonin (1 μM) 5-HT7", "protocol": "as §2, with “of” for “of the”, “5.5” for “1.5”, “[^3H] Lysergic” for “[3H]Lysergic”, “2 h” for “120 min”, “25°” for “37°”, “[^3H]LSD” for “[3H]LSD”"}}, "data": [{"smiles": "CN1CCc2c(c3cccc(Cl)c3n2CC(C)(O)c2ccncc2)C1", "note": "(stereo not shown) [Compound 1-10, 1-(6-chloro-2-methyl-3,4-dihydro-1H-pyrido[4,3-b]indol-5(2H)-yl)-2-(pyridin-4-yl)propan-2-ol]", "values": [{"measurement": "inhibition at 0.1 µM", "setting": "[1]", "value": -8, "unit": "%"}, {"measurement": "inhibition at 0.1 µM", "setting": "[2]", "value": 19, "unit": "%"}, {"measurement": "inhibition at 1 µM", "setting": "[3]", "value": 91, "unit": "%"}]}, {"smiles": "COc1ccc([C@@](C)(O)Cn2c3c(c4cc(C)ccc42)CN(C)CC3)cc1", "note": "[Compound 1-19, (R)-1-(2,8-Dimethyl-3,4-dihydro-1H-pyrido[4,3-b]indol-5(2H)-yl)-2-(4-methoxyphenyl)propan-2-ol]", "values": [{"measurement": "inhibition at 0.1 µM", "setting": "[1]", "value": 20, "unit": "%"}, {"measurement": "inhibition at 0.1 µM", "setting": "[2]", "value": 16, "unit": "%"}, {"measurement": "inhibition at 0.1 µM", "setting": "[3]; compound at 0.1 μM, read-out: Percent Inhibition of ligand binding, Serotonin (0.1 μM) 5-HT2A", "value": 98, "unit": "%"}]}, {"smiles": "Cc1ccc2c(c1)c1c(n2CCc2ccc(C)nc2)CCN(CCCCO)C1", "note": "[Compound 1-43, 4-(8-methyl-5-(2-(6-methylpyridin-3-yl)ethyl)-3,4-dihydro-1H-pyrido[4,3-b]indol-2(5H)-yl)butan-1-ol]", "values": [{"measurement": "inhibition at 1 µM", "setting": "[4]", "value": 97, "unit": "%"}, {"measurement": "inhibition at 1 µM", "setting": "[5]", "value": 21, "unit": "%"}, {"measurement": "inhibition at 1 µM", "setting": "[6]", "value": 10, "unit": "%"}, {"measurement": "inhibition at 1 µM", "setting": "[3]", "value": 47, "unit": "%"}, {"measurement": "inhibition at 1 µM", "setting": "[7]", "value": 49, "unit": "%"}, {"measurement": "inhibition at 1 µM", "setting": "[8]", "value": 22, "unit": "%"}, {"measurement": "inhibition at 1 µM", "setting": "[9]", "value": 66, "unit": "%"}]}]}
